Test results from publication PMC2375285, “Inhibition of all-TRANS-retinoic acid metabolism by R116010 induces antitumour activity” (British Journal of Cancer, 2002).

Assays:
[1] = system: RA metabolism in T47D cells; assay: Reverse-phase HPLC analysis of radiolabelled RA metabolites in T47D cells; type: cell-based, human; settings: 1 μM R116010; T47D cells pretreated with 1 μM RA
Method: The T47D cell suspension was prepared as described above and 450 μl was incubated with 0.1 μM [11, 12-^3H(N)]RA for 90 min. After centrifugation for 10 min at 780 g, the supernatant was analyzed for the presence of RA metabolites. Reverse-phase HPLC analysis was carried out as described previously ([Van heusden et al, 1998]).

aromatase (CYP19) = target: T1, aromatase (CYP19) (Homo sapiens, UniProt P11511); assay: Aromatase, conversion of androstenedione to estrone in human placental microsomes; type: biochemical
T1 construct: aromatase (CYP19) in human placental microsomes; from tissue; host or cells: human placenta, microsomes
T1 sequence (P11511 1-503): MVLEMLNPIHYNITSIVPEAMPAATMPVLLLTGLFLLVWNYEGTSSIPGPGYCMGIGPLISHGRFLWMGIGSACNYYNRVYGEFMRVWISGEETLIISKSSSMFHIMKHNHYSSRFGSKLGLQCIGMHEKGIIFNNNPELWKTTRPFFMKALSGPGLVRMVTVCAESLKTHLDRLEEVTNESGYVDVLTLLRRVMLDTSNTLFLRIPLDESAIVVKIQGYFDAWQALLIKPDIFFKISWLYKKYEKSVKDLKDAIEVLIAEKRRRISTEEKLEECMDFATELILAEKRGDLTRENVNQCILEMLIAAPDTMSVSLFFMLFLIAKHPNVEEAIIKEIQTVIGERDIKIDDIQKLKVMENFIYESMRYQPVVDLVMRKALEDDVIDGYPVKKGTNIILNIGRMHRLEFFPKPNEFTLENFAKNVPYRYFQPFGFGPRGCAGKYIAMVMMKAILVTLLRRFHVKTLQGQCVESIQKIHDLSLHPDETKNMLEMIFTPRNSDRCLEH
Method: (§1) The conversion of androstenedione to estrone by aromatase (CYP19) in human placental microsomes, the conversion of 17-hydroxy-20-dihydroprogesterone to testosterone by 17,20-lyase (CYP17) in rat testicular S10 fractions, and the 2α-, 7α-, 6β-, and 16β-hydroxylation of testosterone (CYP2C11, CYP2A1, CYP3A, CYP2B1/2) in rat liver microsomes were carried out as described ([Vanden Bossche et al, 1990]).

CYP2C11 = target: T2, CYP2C11 (Rattus norvegicus, UniProt P08683); assay: Testosterone 2α-hydroxylase in rat liver microsomes; type: biochemical
T2 construct: hydroxylation of testosterone (CYP2C11, CYP2A1, CYP3A, CYP2B1/2) in rat liver microsomes; from tissue; host or cells: rat liver, microsomes
T2 sequence (P08683 1-500): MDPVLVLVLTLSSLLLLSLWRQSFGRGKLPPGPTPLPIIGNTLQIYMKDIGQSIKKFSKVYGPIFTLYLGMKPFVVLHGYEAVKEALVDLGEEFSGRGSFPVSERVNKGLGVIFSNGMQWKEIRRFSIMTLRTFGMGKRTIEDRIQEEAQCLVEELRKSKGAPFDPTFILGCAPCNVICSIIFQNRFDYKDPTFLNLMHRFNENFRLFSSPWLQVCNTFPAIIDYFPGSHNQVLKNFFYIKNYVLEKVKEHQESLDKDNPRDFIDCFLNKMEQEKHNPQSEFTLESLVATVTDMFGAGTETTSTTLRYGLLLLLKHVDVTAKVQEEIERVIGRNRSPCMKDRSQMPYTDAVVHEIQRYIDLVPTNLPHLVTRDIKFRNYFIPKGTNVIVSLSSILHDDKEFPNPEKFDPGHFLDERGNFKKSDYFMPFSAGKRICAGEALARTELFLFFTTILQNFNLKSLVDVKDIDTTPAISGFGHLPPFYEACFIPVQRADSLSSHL
Method: as §1

CYP2A1 = target: T3, CYP2A1 (Rattus norvegicus, UniProt P11711); assay: Testosterone 7α-hydroxylase in rat liver microsomes; type: biochemical
T3 construct: hydroxylation of testosterone (CYP2C11, CYP2A1, CYP3A, CYP2B1/2) in rat liver microsomes; from tissue; host or cells: rat liver, microsomes
T3 sequence (P11711 1-492): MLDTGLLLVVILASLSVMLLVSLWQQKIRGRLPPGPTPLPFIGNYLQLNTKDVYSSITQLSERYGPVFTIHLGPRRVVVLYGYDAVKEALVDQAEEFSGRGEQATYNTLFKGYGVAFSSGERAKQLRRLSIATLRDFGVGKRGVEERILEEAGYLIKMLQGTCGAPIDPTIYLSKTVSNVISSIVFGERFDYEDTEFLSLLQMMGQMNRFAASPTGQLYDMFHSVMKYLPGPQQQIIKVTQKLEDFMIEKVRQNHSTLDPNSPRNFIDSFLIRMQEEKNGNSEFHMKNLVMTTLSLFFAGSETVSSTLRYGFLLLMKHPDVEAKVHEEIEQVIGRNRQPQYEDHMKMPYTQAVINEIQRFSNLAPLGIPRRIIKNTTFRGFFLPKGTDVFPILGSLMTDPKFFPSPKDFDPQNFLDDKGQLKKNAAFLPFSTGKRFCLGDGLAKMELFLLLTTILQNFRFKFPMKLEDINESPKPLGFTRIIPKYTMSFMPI
Method: as §1

CYP2B1/2 = assay: Testosterone 16β-hydroxylase in rat liver microsomes; type: biochemical; settings: probe testosterone (16β-hydroxylation)
Method: as §1

T47D cells = assay: T47D cell proliferation (MTT assay, 7 days); type: cell-based, human; settings: for enhancement of the antiproliferative activity of RA: T47D cells
Method: T47D cells were seeded in Falcon® 96-well cell culture plates (Life Technologies, Merelbeke, Belgium) at 2500 cells per well in a total volume of 150 μl. Cells were allowed to adhere to plastic for 24 h. Drugs and/or medium were added to a final volume of 200 μl (day 0). Cells were grown under these conditions for 7 days, with renewal of medium and drugs on days 2 and 5. On day 7, medium was renewed and 25 μl MTT-solution was added, and cells were further incubated for 2 h in a cell incubator. The medium was aspirated and 25 μl Sorensen glycine buffer (0.1 M glycine, 0.1 M NaCl; pH 10.5) was added together with 100 μl DMSO to solubilize the blue MTT-formazan product. […] Data are presented as mean±s.d. of three or four independent experiments. Within an experiment, the result of each experimental condition is the mean of six replicate wells. The IC50-values were calculated by non-linear regression analysis using SigmaPlot 4.01 software.

[2] = Blood hormone levels in rats treated with R116010; type: in vivo; settings: 10 mg kg^−1 R116010
in vivo = settings: mouse, po
Method: (§2) Cells (1.5×10^6) were injected intraperitoneally in syngeneic A/J mice. […] Each group consisted of 10 animals for experiments with R116010 and of six animals for experiments with RA. All treatments were performed by oral gavage. […] The control groups were given the vehicle 20% 4-OH-β-cyclodextrine in sterile saline. Mice were daily examined for adverse drug effects. At the end of the experiments, subcutaneous tumours were excised 24 h after the last treatment and weighed to validate the antitumoural effects of the treatment.
(§3) Data are represented as box plots showing median group value, 25/75th percentile, 10/90th percentile and outliers. Groups were statistically compared to the vehicle-treated groups using the Mann–Whitney U-test. Significance was defined at the level of P<0.05.

TA3-Ha mammary tumours = assay: TA3-Ha mammary carcinoma model
Method: as §2, §3

CYP3A = assay: Testosterone 6β-hydroxylase in rat liver microsomes; settings: probe testosterone
Method: as §1

In the case of `C[C@@H]([C@H](c1ccc(Nc2nc3ccccc3s2)cc1)n1ccnc1)N(C)C` [R116010, [S-(R*,R*)]-N-[4-[2-(dimethylamino)-1-(1H-imidazole-1-yl)propyl]-phenyl]-2-benzothiazolamine], the “inhibition of RA metabolism (HPLC)” value [1] is reported as “completely inhibited”, the inhibition at 10 μM (aromatase (CYP19); 10 μM R116010, human placental microsomes, read-out: percentage of inhibition, Aromatase (CYP19)) is reported as 12% and the IC50 (aromatase (CYP19); Human placental microsomes) is reported as greater than 10 µM. The IC50 (CYP2C11; Rat liver microsomes) was greater than 10 µM, the inhibition at 10 μM (CYP2C11; probe testosterone (2α-hydroxylation), 10 μM R116010, rat liver microsomes, read-out: percentage of inhibition, Testosterone 2α-hydroxylase (CYP2C11)) was 28% and the IC50 (CYP2A1; Rat liver microsomes) was greater than 10 µM. It also gave an inhibition at 10 μM (CYP2A1; probe testosterone (7α-hydroxylation), 10 μM R116010, rat liver microsomes, read-out: percentage of inhibition, Testosterone 7α-hydroxylase (CYP2A1)) of 12%, an inhibition at 10 μM (CYP2B1/2; 10 μM R116010, rat liver microsomes, read-out: percentage of inhibition, Testosterone 16β-hydroxylase (CYP2B1/2)) of 21% and an IC50 (CYP2B1/2; Rat liver microsomes) greater than 10 µM. The “enhancement of the antiproliferative activity of RA” value (“enhancement” for short) (T47D cells; 0.01 μM R116010) was 1.25 fold, the “enhancement” value (T47D cells; 0.1 μM R116010) was 2.6 fold and the “enhancement” value (T47D cells; 1 μM R116010) was “three-fold”. For the same compound, the “effect on T47D cell proliferation by itself” value (T47D cells; compound alone, 7 days, MTT) was “no effect”, the “change in blood hormone levels” value [2] was “no change” and the MTD (in vivo) was 5 mg/kg. The body weight decrease (TA3-Ha mammary tumours; R116010 5 mg kg^−1, mice) was roughly 15%, the toxicity findings (TA3-Ha mammary tumours; at toxic dose: RA 5, R116010 5, liarozole fumarate 20 mg kg^−1) was “hair loss and bone fractures” and the therapeutic window (TA3-Ha mammary tumours; maximum tolerated dose versus lowest active dose, TA3-Ha model) was 30 fold. The “dose at which toxicity was observed” value (TA3-Ha mammary tumours; mice, oral, twice daily, toxicity related to hypervitaminosis A) was 5 mg/kg, the “fold more potent than liarozole-fumarate in TA3-Ha model” value (TA3-Ha mammary tumours; oral, twice daily) was “approximately 60 fold” and the “lowest active dose inhibiting TA3-Ha tumour growth” value (TA3-Ha mammary tumours; oral, twice daily, day 1 until day 21, tumour weight) was 0.16 mg/kg. For the same compound, the IC50 (CYP3A) was greater than 10 µM and the inhibition at 10 μM (CYP3A) was 41%.
